# Records with an inconclusive call do not appear. Calls of active or inactive are those of the source.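 How the source made its calls: active means valid dose-response fit whose half-maximal growth-inhibiting concentration is at or below a set limit above the top tested dose; inconclusive means flat fit with effect between 30 and 70%, or poor fit; inactive means half-maximal concentration above a set limit.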
# Tests used:
# [1] = test system: Clostridioides difficile clinical isolate growth, OD600, 24 h; assay: antibacterial activity against Clostridioides difficile – 10-point retest, dose response (AID 1259246)
# [2] = as above; details: Clostridioides difficile clinical isolate growth, OD600, 24 h
SMILES,IC50 [1],"activity change, negative = inhibition ([2]; at 75 µM (top of the series))","activity change, negative = inhibition ([2]; at 120 µM (top of the series))","activity change, negative = inhibition ([2]; at 60 µM (top of the series))"
COc1cccc(C#Cc2ccc([C@H]3[C@@H](CO)N(C(=O)C4CCCCC4)[C@H]3C#N)cc2)c1,77.8 µM,12.9% (inactive),,
O=C(NCC[C@@H]1CC[C@@H](NC(=O)C2CC2)[C@@H](CO)O1)Nc1ccc(C(F)(F)F)cc1,6.63 µM,,2.33% (inactive),
CO[C@H]1CN(C)C(=O)c2ccc(NC(=O)Nc3cc(Cl)cc(Cl)c3)cc2OC[C@@H](C)NC[C@H]1C,11.6 µM,,23.1% (inactive),
Cc1ccc(F)cc1S(=O)(=O)N[C@@H]1CCN(Cc2ccc(OC(C)C)cc2)C1,29.6 µM,,21.4% (inactive),
O=C(NCC[C@@H]1CC[C@H](NC(=O)C2CC2)[C@H](CO)O1)Nc1ccc(C(F)(F)F)cc1,15 µM,,-0.062% (inactive),
CC(C)Cc1ccc(CN2CC[C@@H](NS(=O)(=O)c3ccccc3)C2)cc1,56 µM,,,4.46% (inactive)
CO[C@@H]1CN(C)C(=O)c2ccc(NC(=O)Nc3cc(Cl)cc(Cl)c3)cc2OC[C@H](C)NC[C@@H]1C,74.6 µM,,4.74% (inactive),
O=C(NCC[C@H]1CC[C@@H](NC(=O)C2CC2)[C@H](CO)O1)Nc1ccc(C(F)(F)F)cc1,13.5 µM,,-4.12% (inactive),

# From PubChem BioAssay AID1259246 (Broad Institute, 2017)
